Assay results taken from article PMC3042041 (ACS chemical biology, 2010).

Biological target: T1, REV-ERBα (Homo sapiens, UniProt P20393)
T1 sequence (P20393 1-614): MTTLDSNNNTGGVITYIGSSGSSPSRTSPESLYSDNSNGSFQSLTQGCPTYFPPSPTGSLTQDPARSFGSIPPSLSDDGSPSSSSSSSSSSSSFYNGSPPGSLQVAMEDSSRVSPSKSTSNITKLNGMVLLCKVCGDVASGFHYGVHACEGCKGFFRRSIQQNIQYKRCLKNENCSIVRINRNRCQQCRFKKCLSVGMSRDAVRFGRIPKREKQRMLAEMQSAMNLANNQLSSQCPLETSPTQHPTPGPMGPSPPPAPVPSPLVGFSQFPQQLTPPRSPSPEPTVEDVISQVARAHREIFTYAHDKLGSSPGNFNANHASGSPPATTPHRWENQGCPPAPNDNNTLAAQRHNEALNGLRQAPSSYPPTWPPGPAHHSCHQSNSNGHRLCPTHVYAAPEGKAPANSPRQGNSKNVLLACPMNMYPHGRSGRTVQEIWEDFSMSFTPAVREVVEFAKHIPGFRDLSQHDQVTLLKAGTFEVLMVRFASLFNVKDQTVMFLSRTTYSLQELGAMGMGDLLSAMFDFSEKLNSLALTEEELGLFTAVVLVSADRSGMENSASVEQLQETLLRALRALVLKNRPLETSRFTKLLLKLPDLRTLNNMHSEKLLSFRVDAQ
Assay: Bmal1-luciferase / REV-ERBα cotransfection reporter assay in HEK293 cells
Assay type: cell-based

SMILES: CC(C)(C)OC(=O)CN(Cc1ccc(Cl)cc1)Cc1ccc([N+](=O)[O-])s1 [GSK4112]
- IC50: 2.3 µM
